Reference: ChEMBL document CHEMBL6078673, “Synthesis and anti-tumor activity of menthylamine derivatives: Focusing on the potent inhibitory effect of compound W8 on glioma growth” (Bioorg Med Chem, 2025)
Values after ≈ are worked out from the molar mass of the structure shown. Active and inactive are the calls of the source. The calls are words filed in the database; no cut-off is given here.

How the values were obtained:
[1] = Metabolic stability in liver microsomes (unknown origin) assessed as compound remaining incubated for 60 mins by LC-MS/MS analysis; type: ADME, Microsome; conditions: read-out: Stability
[2] = test system: MCF7; assay: Antiproliferative activity against human MCF7 cells assessed as inhibition of cell growth incubated for 24 hrs by CCK-8 assay; type: functional, cell-based; conditions: MCF7, 24 h
[3] = test system: U-87 MG; assay: Induction of cell cycle arrest in human U87 cells assessed as decrease in number of cells at S phase at 80 uM incubated for 24 hrs by RNase/PI staining based flow cytometry; type: functional; conditions: U-87MG ATCC
[4] = test system: U-87 MG; assay: Antiproliferative activity against human U87 cells assessed as inhibition of cell growth incubated for 24 hrs by CCK-8 assay; type: functional, cell-based, U-87MG ATCC
[5] = test system: HCT-116; assay: Antiproliferative activity against human HCT-116 cells assessed as inhibition of cell growth incubated for 24 hrs by CCK-8 assay; type: functional, cell-based; conditions: HCT-116, 24 h
[6] = test system: U-87 MG; assay: Induction of cell cycle arrest in human U87 cells assessed as increase in number of cells at G1 phase at 80 uM incubated for 24 hrs by RNase/PI staining based flow cytometry; type: functional; conditions: U-87MG ATCC
[7] = Apparent permeability across basolateral to apical side in human Caco-2 cells at 2 uM incubated for 2 hrs by LC-MS/MS analysis; type: ADME, cell-based; conditions: for Papp B→A at 2 h, 2 µM: Caco-2; for Papp: caco-2, 2 h, 2 µM
[8] = test system: KYSE-150 cell line; assay: Antiproliferative activity against human KYSE-150 cell line assessed as inhibition of cell growth incubated for 24 hrs by CCK-8 assay; type: functional, cell-based; conditions: KYSE-150, 24 h
[9] = Metabolic stability in liver microsomes (unknown origin) assessed as half life incubated for 60 mins by LC-MS/MS analysis; type: ADME, Microsome
[10] = test system: U-87 MG; assay: Inhibition of cell migration in human U87 cells at 80 uM incubated for 48 hrs by scratch assay; type: functional, cell-based; conditions: U-87MG ATCC
[11] = test system: U-87 MG; assay: Induction of cell cycle arrest in human U87 cells assessed as increase in number of cells at G2 phase at 80 uM incubated for 24 hrs by RNase/PI staining based flow cytometry; type: functional; conditions: U-87MG ATCC
[12] = Apparent permeability across apical to basolateral side in human Caco-2 cells at 2 uM incubated for 2 hrs by LC-MS/MS analysis; type: ADME, cell-based; conditions: for Papp A→B at 2 h, 2 µM: Caco-2; for Papp: caco-2, 2 h, 2 µM
[13] = test system: U-87 MG; assay: Induction of apoptosis in human U87 cells at 80 uM incubated for 24 hrs by Annexin V-FITC/PI staining based flow cytometry; type: functional
[14] = test system: U-87 MG; assay: Induction of apoptosis in human U87 cells assessed as increase in number of apoptotic cells at 80 uM incubated for 24 hrs by Annexin V-FITC/PI staining based flow cytometry; type: functional, cell-based; conditions: U-87MG ATCC
[15] = Efflux ratio of apparent permeability from basolateral to apical side over apical to basolateral side in human Caco-2 cells at 2 uM incubated for 2 hr by LC-MS/MS analysis; type: ADME, cell-based; conditions: for efflux ratio at 2 h, 2 µM: Caco-2; for Ratio: caco-2, 2 h, 2 µM
[16] = Kinetic solubility in PBS at pH 7.4 incubated under shaking condition for 24 hrs by LC-MS/MS analysis; type: physicochemical; conditions: read-out: Kinetic_solubility
[17] = test system: U-87 MG; assay: Induction of cell cycle arrest in human U87 cells assessed as decrease in number of cells at G1 phase at 80 uM incubated for 24 hrs by RNase/PI staining based flow cytometry; type: functional; conditions: U-87MG ATCC
[18] = test system: U-87 MG; assay: Induction of cell cycle arrest in human U87 cells assessed as increase in number of cells at S phase at 80 uM incubated for 24 hrs by RNase/PI staining based flow cytometry; type: functional; conditions: U-87MG ATCC
[19] = test system: U-87 MG; assay: Induction of cell cycle arrest in human U87 cells assessed as decrease in number of cells at G2 phase at 80 uM incubated for 24 hrs by RNase/PI staining based flow cytometry; type: functional; conditions: U-87MG ATCC

SMILES	remaining at 1 h [1] [%]	IC50 [2] [µM]	IC50 [4] [µM]	IC50 [5] [µM]	Papp B→A at 2 h, 2 µM [7] [nm/s]	IC50 [8] [µM]	half-life [9] [min]	inhibition [10]	Papp A→B at 2 h, 2 µM [12] [nm/s]	Activity ([13]; U-87MG ATCC)	Activity [14]	efflux ratio at 2 h, 2 µM [15]	solubility kinetic at 24 h [16] [µM]	Activity [17]	Activity [18]	Activity [19]	also measured
CC(C)[C@H]1CC[C@H](C)C[C@H]1N1C(=O)c2ccccc2C1=O	80.4	1490	65.3	57.2	126	> 972	> 145	Active	257	Active	Active; Significantly Increased Activity Observed	0.52	0.03 (≈ 0.00856 µg/mL)				Activity [3]: Active; Activity [6]: Active; Activity [11]: Active
CC(C)[C@H]1CC[C@H](C)C[C@@H]1N	79.4	6450	3210	6450	235	6450	> 145	Active	460		Active; Significantly Increased Activity Observed	0.53	146 (≈ 22.6 µg/mL)	inactive	inactive	inactive	Activity [13]: 90%
C[C@]12CC[C@H]3[C@@H](CCC4=CC(=O)CC[C@@]43C)[C@@H]1CC[C@@H]2O [TESTOSTERONE]	91																
CC(C)[C@H]1CC[C@H](C)C[C@@H]1O [RACEMENTHOL]		3680	679	1140		3650		Active			inactive			inactive	inactive	inactive	
CC(C)[C@@H]1CC[C@@H](C)C[C@H]1O [LEVOMENTHOL]		1250	198	771		784		Active			inactive			inactive	inactive	inactive	
COCCc1ccc(OCC(O)CNC(C)C)cc1 (centres undefined) [METOPROLOL]									250								
CC(C)(C)NCC(O)COc1cccc2c1CC(O)C(O)C2 (centres undefined) [NADOLOL]									0.4								
Cn1nnc2c(C(N)=O)ncn2c1=O [TEMOZOLOMIDE]			1500														
CC(C)[C@H]1CC[C@H](C)C[C@H]1N	81.8	> 1260	317	630		> 3280	> 145	Active		Active	Active; Significantly Increased Activity Observed		0.625 (≈ 0.0971 µg/mL)				Activity [3]: Active; Activity [6]: Active; Papp [7]: 22.23 10^-6 cm/s; Activity [11]: Active; Papp [12]: 23.47 10^-6 cm/s; Ratio [15]: 0.55
O=C(O)Cc1ccccc1Nc1c(Cl)cccc1Cl [DICLOFENAC]	97.8						5.32										
CC(C)[C@H]1CC[C@@H](C)C[C@@H]1N	75.4	> 6450	1740	> 318		> 6450	> 145	Active		Active	Active; Significantly Increased Activity Observed		150 (≈ 23.3 µg/mL)				Activity [3]: Active; Activity [6]: Active; Papp [7]: 23.22 10^-6 cm/s; Activity [11]: Active; Papp [12]: 40.16 10^-6 cm/s; Ratio [15]: 0.5
CC(C)[C@@H]1CC[C@@H](C)C[C@@H]1OC(=O)c1ccc([N+](=O)[O-])cc1	33.3	2670	109	787	121	3510	25	Active	244	Active	Active; Significantly Increased Activity Observed	0.51	0.031 (≈ 0.00947 µg/mL)	inactive	inactive	inactive	
CC(C)[C@H]1CC[C@@H](C)C[C@H]1N	79.4	3510	224	848	247	4240	> 145	Active	418		Active; Significantly Increased Activity Observed	0.59	147 (≈ 22.8 µg/mL)	Active	Active	Active	Activity [13]: 90%
CC(C)[C@@H]1CC[C@@H](C)C[C@H]1OC(=O)c1ccc([N+](=O)[O-])cc1	32.6	907	92.7	649	112	> 3130	25.2	Active	240	Active	Active; Significantly Increased Activity Observed	0.48	0.61 (≈ 0.186 µg/mL)	inactive	inactive	inactive	
C[C@H]1O[C@@H](O[C@H]2[C@@H](O)C[C@H](O[C@H]3[C@@H](O)C[C@H](O[C@H]4CC[C@@]5(C)[C@H](CC[C@@H]6[C@@H]5C[C@@H](O)[C@]5(C)[C@@H](C7=CC(=O)OC7)CC[C@]65O)C4)O[C@@H]3C)O[C@@H]2C)C[C@H](O)[C@@H]1O [DIGOXIN]					186				1.5			127					
